These are literature values, as cited in patent US6071521A, “Pharmaceutical composition having an antitumor activity and a process for preparation thereof” (priority 1989, dated 2000).

For this data set the following is noted: water, alcohol, chloroform, and chlorinated ethylene.

For the compound `C=C1C=CC(=O)O1` [protoanemonin, Protoanemonin], the solubility result is “dissolved in water, alcohol, chloroform, and chlorinated ethylene”.
